By IC50 is commonly meant the concentration that inhibits the measured activity by half.

Data on 15 compounds can be found in ChEMBL document CHEMBL4819062, “Novel iodinated quinazolinones bearing sulfonamide as new scaffold targeting radiation induced oxidative stress” (Bioorg Med Chem Lett, 2021).

Experiment [1] has as its target T1, Nuclear factor erythroid 2-related factor 2 (Mus musculus) (UniProt Q60795).
T1 sequence (whole entry): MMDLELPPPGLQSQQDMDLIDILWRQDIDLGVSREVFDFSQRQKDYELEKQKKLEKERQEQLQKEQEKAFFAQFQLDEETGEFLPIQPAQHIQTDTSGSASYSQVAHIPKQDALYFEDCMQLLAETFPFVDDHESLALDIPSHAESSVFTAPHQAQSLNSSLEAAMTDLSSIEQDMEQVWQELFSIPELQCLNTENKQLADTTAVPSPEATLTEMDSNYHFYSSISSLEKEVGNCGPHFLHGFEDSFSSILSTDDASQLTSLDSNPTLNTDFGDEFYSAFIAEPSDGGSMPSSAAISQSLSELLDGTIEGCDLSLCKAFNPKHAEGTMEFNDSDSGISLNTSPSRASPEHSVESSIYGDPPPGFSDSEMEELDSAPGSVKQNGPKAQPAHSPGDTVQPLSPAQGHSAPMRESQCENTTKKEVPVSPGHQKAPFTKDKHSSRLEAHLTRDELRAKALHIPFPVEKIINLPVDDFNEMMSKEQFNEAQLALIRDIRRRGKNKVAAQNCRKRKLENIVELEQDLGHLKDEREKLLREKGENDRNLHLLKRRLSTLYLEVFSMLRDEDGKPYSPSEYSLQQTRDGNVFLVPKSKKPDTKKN
Kind of experiment: Activation of Nrf2 in mouse Hepa1c1c7 cells assessed as increase in NQO1 activity at 0.4 uM. It counts as cell-based. The conditions noted are these: filed as activator.

For experiment [2], the target named is T1, Nuclear factor erythroid 2-related factor 2 (Mus musculus). Kind of experiment: Activation of Nrf2 in mouse Hepa1c1c7 cells assessed as increase in NQO1 activity at 0.8 uM. It counts as cell-based. The conditions noted are these: filed as activator.
For experiment [3] the target is unchanged. Nature of the experiment: Activation of Nrf2 in mouse Hepa1c1c7 cells assessed as increase in NQO1 activity at 1.6 uM. It counts as cell-based. Conditions: filed as activator.
For experiment [4] the target is unchanged. Nature of the experiment: Activation of Nrf2 in mouse Hepa1c1c7 cells assessed as increase in NQO1 activity at 3.125 uM. It counts as cell-based. Conditions: filed as activator.
Experiment [5] has the same target. Kind of experiment: Activation of Nrf2 in mouse Hepa1c1c7 cells assessed as increase in NQO1 activity at 6.25 uM. It counts as cell-based. The conditions noted are these: filed as activator.
The target is the same in experiment [6]. Kind of experiment: Activation of Nrf2 in mouse Hepa1c1c7 cells assessed as increase in NQO1 activity at 12.5 uM. In kind it is cell-based. Conditions: filed as activator.
Experiment [7] in a line: Antioxidant activity assessed as DPPH radical scavenging activity. In kind it is functional. For orientation: DPPH is a stable violet radical that fades when it is reduced.
Experiment [8] deals with T1, Nuclear factor erythroid 2-related factor 2 (Mus musculus). Nature of the experiment: Activation of Nrf2 in mouse Hepa1c1c7 cells assessed as increase in NQO1 activity at 0.313 uM. It counts as cell-based. Conditions: filed as activator.
The target is the same in experiment [9]. Kind of experiment: Activation of Nrf2 in mouse Hepa1c1c7 cells assessed as increase in NQO1 activity at 0.625 uM. It counts as cell-based. Conditions: filed as activator.
Experiment [10] shares this target. Kind of experiment: Activation of Nrf2 in mouse Hepa1c1c7 cells assessed as increase in NQO1 activity at 1.25 uM. In kind it is cell-based. Conditions: filed as activator.
For experiment [11] the target is unchanged. Nature of the experiment: Activation of Nrf2 in mouse Hepa1c1c7 cells assessed as increase in NQO1 activity at 2.5 uM. The conditions noted are these: filed as activator. In kind it is cell-based.
Experiment [12] shares this target. Nature of the experiment: Activation of Nrf2 in mouse Hepa1c1c7 cells assessed as increase in NQO1 activity at 5 uM. In kind it is cell-based. Conditions: filed as activator.
Experiment [13] shares this target. Nature of the experiment: Activation of Nrf2 in mouse Hepa1c1c7 cells assessed as increase in NQO1 activity at 10 uM. In kind it is cell-based. The conditions noted are these: filed as activator.
Experiment [14] has the same target. Nature of the experiment: Activation of Nrf2 in mouse Hepa1c1c7 cells assessed as increase in NQO1 activity at 20 uM. It counts as cell-based. The conditions noted are these: filed as activator.
Experiment [15] shares this target. Nature of the experiment: Activation of Nrf2 in mouse Hepa1c1c7 cells assessed as increase in NQO1 activity at 40 uM. Conditions: filed as activator. In kind it is cell-based.
The target is the same in experiment [16]. Kind of experiment: Activation of Nrf2 in mouse Hepa1c1c7 cells assessed as increase in NQO1 activity at 0.2 uM. In kind it is cell-based. The conditions noted are these: filed as activator.
Experiment [17] has the same target. Kind of experiment: Activation of Nrf2 in mouse Hepa1c1c7 cells assessed as increase in NQO1 activity at 0.5 uM. It counts as cell-based. The conditions noted are these: filed as activator.
Experiment [18] shares this target. Kind of experiment: Activation of Nrf2 in mouse Hepa1c1c7 cells assessed as increase in NQO1 activity at 0.9 uM. It counts as cell-based. Conditions: filed as activator.
Experiment [19] has the same target. Kind of experiment: Activation of Nrf2 in mouse Hepa1c1c7 cells assessed as increase in NQO1 activity at 1.9 uM. In kind it is cell-based. The conditions noted are these: filed as activator.
The target is the same in experiment [20]. Nature of the experiment: Activation of Nrf2 in mouse Hepa1c1c7 cells assessed as increase in NQO1 activity at 3.75 uM. In kind it is cell-based. Conditions: filed as activator.
Experiment [21] shares this target. Nature of the experiment: Activation of Nrf2 in mouse Hepa1c1c7 cells assessed as increase in NQO1 activity at 7.5 uM. Conditions: filed as activator. It counts as cell-based.
For experiment [22] the target is unchanged. Nature of the experiment: Activation of Nrf2 in mouse Hepa1c1c7 cells assessed as increase in NQO1 activity at 15 uM. It counts as cell-based. The conditions noted are these: filed as activator.
For experiment [23] the target is unchanged. Kind of experiment: Activation of Nrf2 in mouse Hepa1c1c7 cells assessed as increase in NQO1 activity at 30 uM. It counts as cell-based. Conditions: filed as activator.
Experiment [24] shares this target. Kind of experiment: Activation of Nrf2 in mouse Hepa1c1c7 cells assessed as concentration required to double induction to increase in NQO1 activity. In kind it is cell-based. Conditions: filed as activator.
For experiment [25] the target is unchanged. Kind of experiment: Activation of Nrf2 in mouse Hepa1c1c7 cells assessed as increase in NQO1 activity at 25 uM. It counts as cell-based. Conditions: filed as activator.
The target is the same in experiment [26]. Kind of experiment: Activation of Nrf2 in mouse Hepa1c1c7 cells assessed as increase in NQO1 activity at 50 uM. In kind it is cell-based. Conditions: filed as activator.

For the compound `NS(=O)(=O)c1ccc(-n2c(SCC(=O)Nc3ccc(Cl)cn3)nc3c(I)cc(I)cc3c2=O)cc1`, the Activity is 0.94 in experiment [1]; 0.99 in experiment [2]; 0.98 in [3]; 1.09 in experiment [4]; 1.5 in [5]; 1.7 in experiment [6]. Further, the IC50 in [7] stood at 30.5 µM.
For `NS(=O)(=O)c1ccc(-n2c(SCC(=O)Nc3cc(Cl)c(Cl)cc3Cl)nc3c(I)cc(I)cc3c2=O)cc1`, the Activity in experiment [8] came out at 1.01; in [9], 1.03; in [10], 1.05; in experiment [11], 1.07; in [12], 1.08; in [13] it was 1.1. Also, the results for the Activity in experiment [14] and in experiment [15] were 1.25 and 1.3, respectively. The 50% inhibitory concentration (IC50) in experiment [7] was found to be 59.8 µM.
On to `NS(=O)(=O)c1ccc(-n2c(SCC(=O)Nc3ccc(Cl)cc3)nc3c(I)cc(I)cc3c2=O)cc1`, for which the Activity came to 1.06 in experiment [8]; 1.04 in [9]; 1.03 in [10]; 1.04 in experiment [11]; 1.19 in [12]; 1.26 in experiment [13]. Also, the Activity in experiment [14] and in [15] was 1.26 throughout. The concentration for half-maximal inhibition (IC50) in [7] was found to be 56.5 µM.
Take `NS(=O)(=O)c1ccc(-n2c(SCC(=O)Nc3cccc(F)c3)nc3c(I)cc(I)cc3c2=O)cc1`: the Activity in experiment [16] is 1.01; in [17] it was 1.04; in experiment [18] it was 1.07; in experiment [19], 1.06; in [20], 1.1; in experiment [21], 1.21. Further, the Activity in [22] was determined as 1.31; in [23] it was 1.47. Further, the concentration for half-maximal inhibition (IC50) in [7] was 59.4 µM.
As to `NS(=O)(=O)c1ccc(-n2c(SCC(=O)Nc3ccc(Br)cc3)nc3c(I)cc(I)cc3c2=O)cc1`, the Activity in experiment [8] was determined as 1.02; in experiment [9], 1.01; in experiment [10], 0.99; in [11], 0.94; in experiment [12], 1.02; in experiment [13], 1.15. Moreover, the Activity in experiment [14] was 1.42; in experiment [15], 1.93; in experiment [24], “Dose-Dependent Effect”. The CD in experiment [24] worked out at 40 µM. Moreover, the IC50 in experiment [7] stood at 49.3 µM.
As to `NS(=O)(=O)c1ccc(-n2c(S)nc3c(I)cc(I)cc3c2=O)cc1`, in [7], the IC50 is 57.1 µM.
As for `NS(=O)(=O)c1ccc(-n2c(SCC(=O)Nc3ccc(F)cc3)nc3c(I)cc(I)cc3c2=O)cc1`, the Activity was 0.98 in [1]; 1 in experiment [2]; 0.99 in [3]; 0.99 in experiment [4]; 1 in experiment [5]; 1.06 in experiment [6]. Besides, the Activity turned out to be 1.13 in [25] and 1.19 in experiment [26]. Moreover, the IC50 in [7] came out at 158 µM.
As for `O=C1O[C@H]([C@@H](O)CO)C(O)=C1O` [ASCORBIC ACID], the IC50 in experiment [7] was found to be 128 µM.
As for `NS(=O)(=O)c1ccc(-n2c(SCC(=O)Nc3c(Cl)cc(Cl)cc3Cl)nc3c(I)cc(I)cc3c2=O)cc1`, the Activity was 1 in [16]; 1.02 in experiment [17]; 1.06 in experiment [18]; 1.04 in experiment [19]; 1.02 in experiment [20]; 1 in experiment [21]. In addition, the values for the Activity in [22] and in experiment [23] were 1 and 1.02, respectively. Besides, the IC50 in experiment [7] was 161 µM.
For the compound `NS(=O)(=O)c1ccc(-n2c(SCC(=O)Nc3ccccn3)nc3c(I)cc(I)cc3c2=O)cc1`, the Activity is 0.96 in experiment [8]; 0.94 in [9]; 0.83 in experiment [10]; 0.76 in experiment [11]; 0.51 in [12]. Moreover, the half-inhibitory concentration (IC50) in experiment [7] was 85 µM.
Take `NS(=O)(=O)c1ccc(-n2c(SCC(=O)Nc3cccnc3)nc3c(I)cc(I)cc3c2=O)cc1`: the Activity in experiment [16] was 1; in [17] it was 0.99; in [18], 1; in experiment [19], 0.99; in experiment [20] it was 1.03; in experiment [21] it was 1.07. Further, the Activity in [22] worked out at 1.19; in [23], 1.35. In experiment [7], the half-inhibitory concentration (IC50) was 165 µM.
For the compound `NS(=O)(=O)c1ccc(-n2c(SCC(=O)Nc3ccc(I)cc3)nc3c(I)cc(I)cc3c2=O)cc1`, the Activity in experiment [8] was determined as 1.02; in experiment [9], 1.02; in [10], 1.03; in experiment [11], 1.04; in [12], 1.05; in experiment [13], 1.04. Further, the Activity turned out to be 1.07 in experiment [14] and 1.12 in experiment [15]. Further, the concentration for half-maximal inhibition (IC50) in [7] turned out to be 55.6 µM.
Regarding `NS(=O)(=O)c1ccc(-n2c(SCC(=O)Nc3ccncc3)nc3c(I)cc(I)cc3c2=O)cc1`, the Activity in experiment [1] worked out at 1.04; in experiment [2], 1; in experiment [3], 1.02; in experiment [4], 1.06; in experiment [5] it was 1.15; in [6], 1.31. Also, the results for the Activity in experiment [25] and in [26] were 1.65 and 1.89, respectively. Also, the half-inhibitory concentration (IC50) in [7] was 112 µM.
Take `NS(=O)(=O)c1ccc(-n2c(SCC(=O)Nc3ccccc3F)nc3c(I)cc(I)cc3c2=O)cc1`: the Activity in experiment [16] is 1.05; in [17], 1.06; in experiment [18], 1.11; in experiment [19], 1.12; in experiment [20], 1.13; in experiment [21], 1.23. In addition, the Activity in [22] is 1.8. Moreover, in [7], the half-inhibitory concentration (IC50) came to 98.9 µM.
As for `NS(=O)(=O)c1ccc(-n2c(SCC(=O)Nc3ccc(Br)cc3Br)nc3c(I)cc(I)cc3c2=O)cc1`, the Activity was found to be 1.01 in experiment [16]; 1 in experiment [17]; 1 in [18]; 1.02 in experiment [19]; 1.09 in experiment [20]; 1.08 in [21]. For the same compound, the Activity in experiment [22] was 1.13; in [23], 1.17. Also, the IC50 in experiment [7] amounted to 37.8 µM.
